The source of these data is paper PMC4639830, “Inhibition of DYRK1A and GSK3B induces human β-cell proliferation” (Nature Communications, 2015).

Holding throughout (assay): Kinase profiling
Common to all, as to type: biochemical

In one assay the target is T1, NEK2 (Homo sapiens, UniProt P51955).
T1 construct: purchased Ambit (KINOMEscan)
The following applies: Conc 1000 nM; read-out: Percent inhibition, NEK2. From the text:
(§1) ; Fig. 5a; Supplementary Table 1). We focused on Dyrk1a because other kinases inhibited by aminopyrazine compounds were not highly expressed in β-cells and because Dyrk1a was known to inhibit the NFAT pathway that was previously implicated in β-cell proliferation. We used molecular modelling to dock the aminopyrazine compounds into the published structure of Dyrk1a (protein databank accession code 2vx3.pdb; Fig. 5b).

Another assay concerns the target T2, ALK (Homo sapiens, UniProt Q9UM73).
T2 construct: purchased Ambit KINOMEscan
The following applies: read-out: Percent inhibition, ALK; for inhibition at 1 µM: Conc 1000 nM.
From the text: as §1

In another assay the target is T3, TRKA (NTRK1) (Homo sapiens, UniProt P04629).
T3 construct: purchased Ambit (KINOMEscan)
The following applies: read-out: Percent inhibition, TRKA (NTRK1); for inhibition at 1 µM: Conc 1000 nM.
From the text: as §1

In the next assay the target is T4, AURORA-B (Homo sapiens, UniProt Q96GD4).
T4 construct: purchased Ambit KINOMEscan
The following applies: Conc 1000 nM; read-out: Percent inhibition, AURORA-B.
From the text: as §1

A further assay addresses T5, Flt-3 (Homo sapiens, UniProt P36888).
T5 construct: purchased Ambit KINOMEscan
T5 sequence (P36888 27-993): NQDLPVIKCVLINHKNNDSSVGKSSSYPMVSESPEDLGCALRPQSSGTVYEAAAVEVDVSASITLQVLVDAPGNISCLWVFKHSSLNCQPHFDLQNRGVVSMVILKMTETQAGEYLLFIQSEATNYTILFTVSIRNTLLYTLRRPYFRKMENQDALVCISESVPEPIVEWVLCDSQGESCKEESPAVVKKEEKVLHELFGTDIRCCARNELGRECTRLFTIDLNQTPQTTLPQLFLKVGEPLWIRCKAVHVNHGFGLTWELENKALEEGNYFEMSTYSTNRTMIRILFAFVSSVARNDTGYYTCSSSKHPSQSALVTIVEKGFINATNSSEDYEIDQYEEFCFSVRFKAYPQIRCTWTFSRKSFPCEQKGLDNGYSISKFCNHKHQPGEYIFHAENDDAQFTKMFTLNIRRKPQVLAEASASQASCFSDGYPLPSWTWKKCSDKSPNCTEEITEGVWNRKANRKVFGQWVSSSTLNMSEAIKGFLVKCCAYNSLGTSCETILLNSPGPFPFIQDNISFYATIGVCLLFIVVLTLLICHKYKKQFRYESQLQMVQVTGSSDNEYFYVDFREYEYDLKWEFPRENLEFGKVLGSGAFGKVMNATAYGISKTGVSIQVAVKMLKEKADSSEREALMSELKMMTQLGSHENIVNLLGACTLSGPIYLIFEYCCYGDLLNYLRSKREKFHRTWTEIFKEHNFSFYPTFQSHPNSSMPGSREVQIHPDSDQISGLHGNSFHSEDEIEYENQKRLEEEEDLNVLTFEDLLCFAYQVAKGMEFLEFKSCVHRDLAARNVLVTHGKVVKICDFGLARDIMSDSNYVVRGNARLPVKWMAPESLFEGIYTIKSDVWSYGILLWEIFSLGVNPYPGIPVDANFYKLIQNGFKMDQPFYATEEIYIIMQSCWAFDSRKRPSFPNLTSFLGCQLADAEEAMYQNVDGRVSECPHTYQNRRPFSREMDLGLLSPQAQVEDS
The following applies: read-out: Percent inhibition, Flt-3; for inhibition at 1 µM: Conc 1000 nM.
From the text: as §1

For the next assay, the target named is T6, PKCalpha (Homo sapiens, UniProt P17252).
T6 construct: purchased Ambit (KINOMEscan)
The following applies: read-out: Percent inhibition, PKCalpha; for inhibition at 1 µM: Conc 1000 nM.
From the text: as §1

A further assay addresses T7, PI3Ka (Homo sapiens, UniProt P42336).
T7 construct: purchased Ambit (KINOMEscan)
The following applies: Conc 1000 nM; read-out: Percent inhibition, PI3Ka.
From the text: as §1

The target in another assay is T8, CSK (Homo sapiens, UniProt P41240).
T8 construct: purchased Ambit KINOMEscan
Particulars: Conc 1000 nM; read-out: Percent inhibition, CSK.
From the text: as §1

Another assay has as its target T9, ZAP70 (Homo sapiens, UniProt P43403).
T9 construct: purchased Ambit (KINOMEscan)
T9 sequence (P43403 1-619): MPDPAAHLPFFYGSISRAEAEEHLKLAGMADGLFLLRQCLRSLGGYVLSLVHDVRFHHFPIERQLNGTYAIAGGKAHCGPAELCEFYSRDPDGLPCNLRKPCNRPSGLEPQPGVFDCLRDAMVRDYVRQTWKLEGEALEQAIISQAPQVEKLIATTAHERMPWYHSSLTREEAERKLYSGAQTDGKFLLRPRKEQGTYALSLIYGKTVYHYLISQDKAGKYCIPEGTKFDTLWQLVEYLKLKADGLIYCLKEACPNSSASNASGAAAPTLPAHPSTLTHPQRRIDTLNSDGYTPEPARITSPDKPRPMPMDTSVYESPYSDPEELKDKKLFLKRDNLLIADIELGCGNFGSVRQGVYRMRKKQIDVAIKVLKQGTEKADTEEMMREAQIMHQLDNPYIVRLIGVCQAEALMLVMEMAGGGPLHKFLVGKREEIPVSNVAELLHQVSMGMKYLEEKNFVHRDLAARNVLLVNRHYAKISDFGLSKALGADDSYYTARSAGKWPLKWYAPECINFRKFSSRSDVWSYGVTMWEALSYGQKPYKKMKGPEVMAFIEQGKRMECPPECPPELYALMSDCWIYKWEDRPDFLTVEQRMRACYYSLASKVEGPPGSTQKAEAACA
The following applies: read-out: Percent inhibition, ZAP70; for inhibition at 1 µM: Conc 1000 nM.
From the text: as §1

For a further assay, the target named is T10, EphA3 (Homo sapiens, UniProt P29320).
T10 construct: purchased Ambit KINOMEscan
The following applies: Conc 1000 nM; read-out: Percent inhibition, EphA3.
From the text: as §1

The target in another assay is T11, bRAF (Homo sapiens, UniProt P15056).
T11 construct: purchased Ambit KINOMEscan
The following applies: Conc 1000 nM; read-out: Percent inhibition, bRAF.
From the text: as §1

For another assay, the target named is T12, JAK2 (Homo sapiens, UniProt O60674).
T12 construct: purchased Ambit KINOMEscan
Particulars: read-out: Percent inhibition, JAK2; for inhibition at 1 µM: Conc 1000 nM.
From the text: as §1

The target of the next assay is T13, CK1a (Homo sapiens, UniProt P48729).
T13 construct: purchased Ambit KINOMEscan
Particulars: Conc 1000 nM; read-out: Percent inhibition, CK1a.
From the text: as §1

For another assay, the target named is T14, p38delta (MAPK13) (Homo sapiens, UniProt O15264).
T14 construct: purchased Ambit (KINOMEscan)
The following applies: Conc 1000 nM; read-out: Percent inhibition, p38delta (MAPK13).
From the text: as §1

T3 sequence (P04629 33-796): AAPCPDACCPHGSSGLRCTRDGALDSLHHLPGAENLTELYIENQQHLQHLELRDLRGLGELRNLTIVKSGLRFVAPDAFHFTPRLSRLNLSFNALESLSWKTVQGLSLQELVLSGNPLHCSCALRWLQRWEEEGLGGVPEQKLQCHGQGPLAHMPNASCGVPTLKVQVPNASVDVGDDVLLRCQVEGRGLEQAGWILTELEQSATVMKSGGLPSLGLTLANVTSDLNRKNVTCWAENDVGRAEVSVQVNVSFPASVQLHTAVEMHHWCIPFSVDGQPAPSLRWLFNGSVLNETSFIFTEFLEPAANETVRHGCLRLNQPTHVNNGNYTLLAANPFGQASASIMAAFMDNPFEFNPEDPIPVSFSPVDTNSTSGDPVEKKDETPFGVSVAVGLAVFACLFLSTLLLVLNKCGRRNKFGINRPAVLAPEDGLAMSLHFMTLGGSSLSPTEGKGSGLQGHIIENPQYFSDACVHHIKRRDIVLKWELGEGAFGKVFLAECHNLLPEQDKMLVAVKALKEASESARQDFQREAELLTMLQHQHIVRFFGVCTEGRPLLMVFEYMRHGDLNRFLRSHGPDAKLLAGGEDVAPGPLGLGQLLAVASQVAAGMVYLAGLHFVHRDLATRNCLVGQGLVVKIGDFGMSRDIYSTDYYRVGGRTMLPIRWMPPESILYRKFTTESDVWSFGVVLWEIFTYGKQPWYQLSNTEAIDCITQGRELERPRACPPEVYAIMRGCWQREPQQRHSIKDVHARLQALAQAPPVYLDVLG
T2 sequence (Q9UM73 19-1620): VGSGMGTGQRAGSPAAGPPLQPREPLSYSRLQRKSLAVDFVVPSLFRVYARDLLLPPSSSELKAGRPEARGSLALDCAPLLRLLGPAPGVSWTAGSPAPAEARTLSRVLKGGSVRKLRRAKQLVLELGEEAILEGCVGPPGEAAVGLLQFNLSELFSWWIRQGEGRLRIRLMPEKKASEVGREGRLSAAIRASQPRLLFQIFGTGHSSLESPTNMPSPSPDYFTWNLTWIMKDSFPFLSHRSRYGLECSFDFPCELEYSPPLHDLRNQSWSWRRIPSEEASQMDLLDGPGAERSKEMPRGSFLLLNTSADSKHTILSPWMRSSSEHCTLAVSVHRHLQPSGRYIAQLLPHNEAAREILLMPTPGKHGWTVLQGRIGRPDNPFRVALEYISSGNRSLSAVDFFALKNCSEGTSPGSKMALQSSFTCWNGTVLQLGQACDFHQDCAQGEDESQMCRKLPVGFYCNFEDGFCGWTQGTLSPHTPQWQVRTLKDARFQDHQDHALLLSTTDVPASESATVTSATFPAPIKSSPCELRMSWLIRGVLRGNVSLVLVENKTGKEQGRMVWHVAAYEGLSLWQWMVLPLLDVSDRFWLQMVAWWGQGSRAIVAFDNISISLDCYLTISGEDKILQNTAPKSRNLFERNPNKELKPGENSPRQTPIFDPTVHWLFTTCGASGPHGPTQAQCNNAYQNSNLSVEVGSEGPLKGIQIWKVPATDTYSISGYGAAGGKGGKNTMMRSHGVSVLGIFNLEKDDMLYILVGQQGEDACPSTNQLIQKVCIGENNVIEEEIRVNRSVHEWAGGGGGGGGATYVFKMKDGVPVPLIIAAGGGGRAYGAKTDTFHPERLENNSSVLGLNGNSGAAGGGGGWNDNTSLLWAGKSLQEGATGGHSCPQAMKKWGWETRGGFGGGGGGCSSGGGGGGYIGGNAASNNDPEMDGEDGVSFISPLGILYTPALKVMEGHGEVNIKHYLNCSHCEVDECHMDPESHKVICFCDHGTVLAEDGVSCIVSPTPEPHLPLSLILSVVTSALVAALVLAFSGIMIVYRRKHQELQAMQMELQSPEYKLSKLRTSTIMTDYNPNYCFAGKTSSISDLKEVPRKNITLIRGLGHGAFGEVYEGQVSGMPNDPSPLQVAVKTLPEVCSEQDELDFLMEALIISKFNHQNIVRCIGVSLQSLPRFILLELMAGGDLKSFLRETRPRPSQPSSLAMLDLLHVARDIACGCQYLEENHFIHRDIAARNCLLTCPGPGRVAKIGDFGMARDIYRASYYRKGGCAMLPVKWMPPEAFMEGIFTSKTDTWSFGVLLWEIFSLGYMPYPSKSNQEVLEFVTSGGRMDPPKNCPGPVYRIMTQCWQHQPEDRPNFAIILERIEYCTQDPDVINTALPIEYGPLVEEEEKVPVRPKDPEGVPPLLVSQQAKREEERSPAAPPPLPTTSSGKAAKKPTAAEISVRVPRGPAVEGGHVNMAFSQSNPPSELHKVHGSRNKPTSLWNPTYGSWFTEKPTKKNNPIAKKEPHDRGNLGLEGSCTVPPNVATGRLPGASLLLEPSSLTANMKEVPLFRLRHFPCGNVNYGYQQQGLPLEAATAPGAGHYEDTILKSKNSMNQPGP
T12 sequence (O60674 whole entry): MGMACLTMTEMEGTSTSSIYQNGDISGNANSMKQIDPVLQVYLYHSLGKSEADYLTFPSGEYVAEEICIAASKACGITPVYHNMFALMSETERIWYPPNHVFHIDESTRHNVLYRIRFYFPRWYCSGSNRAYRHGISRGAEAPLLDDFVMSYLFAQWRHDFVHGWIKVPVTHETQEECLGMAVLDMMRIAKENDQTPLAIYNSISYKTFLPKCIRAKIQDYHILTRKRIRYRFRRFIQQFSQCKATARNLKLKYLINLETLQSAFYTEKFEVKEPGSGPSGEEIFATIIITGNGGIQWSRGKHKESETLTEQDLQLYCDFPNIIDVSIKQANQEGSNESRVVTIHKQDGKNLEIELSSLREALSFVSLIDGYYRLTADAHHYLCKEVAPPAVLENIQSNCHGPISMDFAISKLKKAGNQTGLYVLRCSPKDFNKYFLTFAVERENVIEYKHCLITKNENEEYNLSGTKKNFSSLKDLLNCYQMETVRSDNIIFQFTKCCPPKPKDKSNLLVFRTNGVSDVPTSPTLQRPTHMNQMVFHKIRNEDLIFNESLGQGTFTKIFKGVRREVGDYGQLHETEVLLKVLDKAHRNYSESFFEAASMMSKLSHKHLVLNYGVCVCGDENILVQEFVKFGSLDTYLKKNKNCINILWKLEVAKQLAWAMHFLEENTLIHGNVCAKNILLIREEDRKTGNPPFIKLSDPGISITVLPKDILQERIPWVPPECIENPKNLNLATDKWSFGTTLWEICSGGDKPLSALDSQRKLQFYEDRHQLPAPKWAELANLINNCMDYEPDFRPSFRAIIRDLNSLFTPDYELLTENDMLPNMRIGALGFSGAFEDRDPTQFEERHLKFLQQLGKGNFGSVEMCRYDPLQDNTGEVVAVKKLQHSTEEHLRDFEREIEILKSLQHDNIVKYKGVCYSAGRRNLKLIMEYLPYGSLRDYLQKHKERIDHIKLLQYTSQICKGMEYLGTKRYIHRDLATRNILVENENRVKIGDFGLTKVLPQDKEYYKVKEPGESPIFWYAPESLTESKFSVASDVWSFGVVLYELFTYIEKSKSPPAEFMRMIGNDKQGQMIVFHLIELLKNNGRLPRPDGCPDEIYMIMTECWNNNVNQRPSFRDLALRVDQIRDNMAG
T11 sequence (P15056 whole entry): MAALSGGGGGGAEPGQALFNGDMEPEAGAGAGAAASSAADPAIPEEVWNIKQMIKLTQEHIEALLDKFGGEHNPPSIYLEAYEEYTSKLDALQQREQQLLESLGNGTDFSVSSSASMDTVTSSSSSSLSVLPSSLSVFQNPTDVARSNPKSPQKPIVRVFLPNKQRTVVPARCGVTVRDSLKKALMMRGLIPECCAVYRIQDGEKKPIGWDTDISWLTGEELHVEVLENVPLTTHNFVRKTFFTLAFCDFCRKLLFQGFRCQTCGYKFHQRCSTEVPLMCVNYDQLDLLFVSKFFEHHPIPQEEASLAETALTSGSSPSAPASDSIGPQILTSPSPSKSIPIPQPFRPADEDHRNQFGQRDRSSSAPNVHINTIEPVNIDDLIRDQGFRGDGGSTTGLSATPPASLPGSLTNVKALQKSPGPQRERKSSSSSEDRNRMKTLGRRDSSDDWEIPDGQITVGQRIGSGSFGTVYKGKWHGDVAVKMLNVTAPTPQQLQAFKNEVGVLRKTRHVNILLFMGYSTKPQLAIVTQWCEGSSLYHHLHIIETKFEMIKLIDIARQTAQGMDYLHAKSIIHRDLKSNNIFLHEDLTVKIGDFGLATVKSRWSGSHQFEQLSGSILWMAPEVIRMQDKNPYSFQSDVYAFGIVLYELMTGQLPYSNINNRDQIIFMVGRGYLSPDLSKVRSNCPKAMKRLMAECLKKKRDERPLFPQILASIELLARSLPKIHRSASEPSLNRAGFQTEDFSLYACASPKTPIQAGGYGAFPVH

With `Nc1ncc(-c2ccccc2)nc1C(=O)Nc1cnccc1N1CCC(C(=O)O)CC1` [GNF7156], the inhibition at 1 µM turned out to be 3% on NEK2; 71% at ALK; 92% on TRKA (NTRK1); 52% at AURORA-B; 64% on Flt-3; 96% at PKCalpha. Besides, the inhibition at 1 µM is 2% at PI3Ka; 29% on CSK; 70% at ZAP70; 82% at EphA3; 46% at bRAF; 92% on JAK2. The inhibition at 1 µM on CK1a worked out at 42%; on p38delta (MAPK13), 10%.

For the molecule `CC(C)Oc1ccc(F)c(-c2cnc(N)c(C(=O)Nc3cnccc3N3CCC[C@@H](C(=O)O)C3)n2)c1` [GNF4877], the inhibition at 1 µM at NEK2 is 0%; on ALK, 96%; on TRKA (NTRK1), 80%; on AURORA-B, 49%; at Flt-3, 86%; on PKCalpha, 97%. The inhibition at 1 µM on PI3Ka was 31%; at CSK, 54%; at ZAP70, 94%; on EphA3, 63%; on bRAF, 20%; at JAK2 it was 95%. For the same molecule, the results for the inhibition at 1 µM on CK1a and on p38delta (MAPK13) were 89% and 13%, respectively. The inhibition at 0.2 µM on ALK (Conc 200 nM) stood at 35%; on TRKA (NTRK1) (Conc 200 nM), 19%; on Flt-3 (Conc 200 nM), 36%; at PKCalpha (Conc 200 nM), 0%; on ZAP70 (Conc 200 nM), 0%; on JAK2 (Conc 200 nM), 2%.
